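Here, GI50 denotes the concentration required for 50% inhibition of growth. TGI is the concentration that stops growth completely.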
Columns and labels:
Assay in all cases: growth of human tumour cells (NCI), 384-well format
[1] = system: IGROV1 ovarian
[2] = system: BT-549 breast
[3] = system: HOP-92 NSCLC
[4] = system: HT29 colon
[5] = system: OVCAR-4 ovarian
[6] = system: EKVX NSCLC
[7] = system: CAKI-1 renal
[8] = system: HS 578T breast
[9] = system: MCF7 breast
[10] = system: SW-620 colon
[11] = system: MDA-MB-435 melanoma
[12] = system: NCI-H23 lung
[13] = system: SF-295 CNS
[14] = system: HCC-2998 colon
[15] = system: NCI/ADR-RES ovarian
[16] = system: SNB-19 CNS
[17] = system: A498 renal
[18] = system: RXF 393 renal
[19] = system: PC-3 prostate
[20] = system: NCI-H522 lung
[21] = system: HOP-62 NSCLC
[22] = system: NCI-H322M lung
[23] = system: ACHN renal
[24] = system: TK-10 renal
[25] = system: HL-60(TB) leukemia
[26] = system: SK-MEL-28 melanoma
[27] = system: UO-31 renal
[28] = system: T-47D breast
[29] = system: RPMI-8226 leukemia
[30] = system: SF-539 CNS
[31] = system: SR leukemia
[32] = system: NCI-H460 NSCLC
[33] = system: SK-OV-3 ovarian
[34] = system: MDA-MB-231 breast
[35] = system: CCRF-CEM leukemia
[36] = system: MDA-MB-468 breast
[37] = system: HCT-116 colon
[38] = system: A549 NSCLC
[39] = system: OVCAR-3 ovarian
[40] = system: SNB-75 CNS
[41] = system: SN12C renal
[42] = system: OVCAR-5 ovarian
[43] = system: KM12 colon
[44] = system: MOLT-4 leukemia
[45] = system: SF-268 CNS
[46] = system: OVCAR-8 ovarian
[47] = system: NCI-H226 lung

`Cc1ccc(Nc2nc(N)c(C(=O)c3ccc(C#N)cc3)s2)cc1` showed a GI50 [1] of 73.2 nM, a TGI [1] of 15300 nM and a GI50 [2] of 38.2 nM. For the same molecule, the TGI [2] was 1310 nM, the GI50 [3] was 332 nM and the TGI [3] was 23300 nM. The GI50 [4] was 34 nM, the TGI [4] was 28200 nM and the GI50 [5] was 385 nM. For the same molecule, the TGI [5] was 17800 nM, the GI50 [6] was 58.4 nM and the TGI [6] was 51500 nM. It also gave a GI50 [7] of 56.6 nM, a TGI [7] of 11200 nM and a GI50 [8] of 22.1 nM. It also gave a TGI [8] of 47.1 nM, a GI50 [9] of 40.2 nM and a TGI [9] of 28200 nM. For the same molecule, the GI50 [10] was 37.3 nM, the TGI [10] was 13900 nM and the GI50 [11] was 41.9 nM. It also gave a TGI [11] of 151 nM, a GI50 [12] of 47.9 nM and a TGI [12] of 1470 nM. It also gave a GI50 [13] of 57.8 nM, a TGI [13] of 298 nM and a GI50 [14] of 105 nM. For the same molecule, the TGI [14] was 572 nM, the GI50 [15] was 28.7 nM and the TGI [15] was 69.1 nM. For the same molecule, the GI50 [16] was 325 nM, the TGI [16] was > 100000 nM and the GI50 [17] was 298 nM. For the same molecule, the TGI [17] was 16400 nM, the GI50 [18] was 23.3 nM and the TGI [18] was 51.2 nM. The GI50 [19] was 47.6 nM, the TGI [19] was > 100000 nM and the GI50 [20] was 121 nM. The TGI [20] was 292 nM, the GI50 [21] was 38.6 nM and the TGI [21] was 3610 nM. For the same molecule, the GI50 [22] was 481 nM, the TGI [22] was 46400 nM and the GI50 [23] was 72.5 nM. It also gave a TGI [23] of 17800 nM, a GI50 [24] of 447 nM and a TGI [24] of 22200 nM. The GI50 [25] was 19.7 nM, the TGI [25] was 34.7 nM and the GI50 [26] was 14600 nM. It also gave a TGI [26] of 74900 nM, a GI50 [27] of 69 nM and a TGI [27] of 1720 nM. For the same molecule, the GI50 [28] was 743 nM, the TGI [28] was 26300 nM and the GI50 [29] was 30.9 nM. For the same molecule, the TGI [29] was 112 nM, the GI50 [30] was 188 nM and the TGI [30] was 393 nM. For the same molecule, the GI50 [31] was 18.1 nM, the TGI [31] was 33.4 nM and the GI50 [32] was 178 nM. It also gave a TGI [32] of 351 nM, a GI50 [33] of 247 nM and a TGI [33] of 18300 nM. For the same molecule, the GI50 [34] was 202 nM, the TGI [34] was 35800 nM and the GI50 [35] was 170 nM. The TGI [35] was 310 nM, the GI50 [36] was 185 nM and the TGI [36] was 352 nM. The GI50 [37] was 243 nM, the TGI [37] was 976 nM and the GI50 [38] was 247 nM. For the same molecule, the TGI [38] was > 100000 nM, the GI50 [39] was 170 nM and the TGI [39] was 414 nM. The GI50 [40] was 37 nM, the TGI [40] was 520 nM and the GI50 [41] was 348 nM. The TGI [41] was 54600 nM, the GI50 [42] was 1460 nM and the TGI [42] was 55100 nM. The GI50 [43] was 42 nM, the TGI [43] was 19900 nM and the GI50 [44] was 128 nM. It also gave a TGI [44] of 256 nM, a GI50 [45] of 45.8 nM and a TGI [45] of 2520 nM. The GI50 [46] was 86.7 nM, the TGI [46] was 40300 nM and the GI50 [47] was 39.3 nM. For the same molecule, the TGI [47] was 2070 nM.
